Experimental data: US12390460B2, “Treatment for obesity” (1GLOBE BIOMEDICAL CO., LTD., priority 2018, dated 2025)

Experiments:
TGF-β = TGF-β gene expression in eWAT; type: in vivo; conditions: HFD-fed mice; FIG. 4C
Source text: Since obesity has been linked to low-grade inflammation in the adipose tissue, we consequently observed increased TGF-β expression in the epididymal fat pads of the HFD-fed mice.

[1] = Body weight, food/water intake and adverse effects in modified high-fat diet (HFD) obese mice; type: in vivo, C57B1/6J mice
Source text: In order to assess the in vivo efficacy of Compound 14-3, a preferred embodiment of the compound of the invention, in treating and ameliorating obesity and related diseases like the metabolic syndrome, a previously used modified high-fat diet (HFD) was employed to induce obesity and severe fatty liver disease in mice (Derdak et al. J of Hepatology 2013; 58(4):785-91).
Five-week-old male, C57B1/6J mice (12-18 per group, Jackson Laboratory, Bar Harbor, ME) were fed ad libitum with a modified high-fat or control diet (Bioserv, Frenchtown, NJ) for 15 weeks. […] We had verified the efficacy of this diet to induce obesity in various pilot studies. At the end of the 15-week long feeding regimen, this diet caused substantial weight gain in these mice.
After 15 weeks on the modified HFD, the mice were put on a Compound 14-3 (or control vehicle) dosing regimen, in which the introductory 5 mg/kg (p.o., t.i.w. for the first 3 weeks) dose was followed by the administration of 10 mg/kg (p.o., t.i.w. for an additional 5 weeks) therapeutic dose. During the course of the drug treatment, the animals were monitored daily for changes in body weight, food/water intake, and any adverse effects.

liver = assay: Liver size, appearance and liver/body weight ratio (NAFLD) in HFD-fed mice; type: in vivo
Source text: The enlarged liver appeared pale yellow consistent with fatty metamorphosis. […] The beneficial effect on liver size and appearance was consistent as a part of overall improvement in metabolic properties after Compound 14-3 treatment.

[2] = test system: genes involved in lipid transport and degradation, beta-oxidation, de novo lipogenesis, and insulin sensitivity (RORA, ACADM, ACOX1, MLYCD, PEPCK); assay: Gene expression in visceral fat (eWAT); type: in vivo; conditions: HFD-fed mice
Source text: To get a more detailed insight into the metabolic changes caused by the Compound 14-3 treatment in the visceral fat (eWAT), the expression of genes involved in lipid transport and degradation, beta-oxidation, de novo lipogenesis, and insulin sensitivity were examined.
Acyl-Coenzyme A dehydrogenase, C-4 to C-12 straight chain (ACADM, FIG. 6B) is known to be important for the degradation of medium chain fatty acids.
Similarly, malonyl CoA decarboxylase (MLYCD, FIG. 6D) has been induced by the Compound 14-3 treatment. This event is linked to decreased malonyl CoA synthesis and the suppression of de novo lipogenesis by Compound 14-3.

[3] = mice, 5 then 10 mg/kg p.o. t.i.w.

With `CCN(CC)CCNC(=O)c1c(C)[nH]c(/C=C2\C(=O)Nc3ccc(-c4csc(-c5ccccc5)n4)cc32)c1C` [Compound 14-3] the “TGF-β abundance (gene expression) in eWAT” value (TGF-β) was “decreased”, the “daily normalized caloric (food) intake” value ([1]; HFD-fed mice during treatment, FIG. 1C) was “not linked to decreased food intake” and the “daily normalized water intake” value ([1]; HFD-fed mice during treatment, FIG. 1D) was “not linked to decreased”. For the same compound, the “change in body weight during treatment” value ([1]; HFD-fed mice, 5 mg/kg p.o. t.i.w. 3 weeks then 10 mg/kg p.o. t.i.w. 5 weeks, FIG. 1A) was “not only prevented additional weight gain in the mice on HFD, but also triggered a gradual weight loss”, the “difference in body weight vs control-vehicle-treated mice on HFD at the time of euthanasia” value ([1]; HFD-fed mice, 5 then 10 mg/kg p.o. t.i.w., 8 weeks, FIG. 1B) was ~20% and the behaviors or activities [1, 3] was “No changes in behaviors or activities were observed”. The side effects [1, 3] was “temporary, self-resolving, mild diarrhea seen in a couple of mice at the initiation of drug treatment”, the NAFLD (liver; FIG. 8A) was “marked improvement” and the “size of the liver” value (liver; FIG. 8A) was “markedly decreased”. The liver/body weight ratio (liver; FIG. 8B) was “lower”, the “RORA expression in eWAT” value ([2]; FIG. 6A) was “significantly increased” and the “ACADM gene expression in eWAT” value ([2]; FIG. 6B) was “Increased”. The “ACOX1 expression in eWAT” value ([2]; FIG. 6C) was “increased”, the “MLYCD expression in eWAT” value ([2]; FIG. 6D) was “induced” and the “PEPCK gene expression in eWAT” value ([2]; FIG. 6E) was “comparable to that of the control-fed mice”.
